Results published in ChEMBL document CHEMBL6087437 (J Med Chem, 2025).

Tests used:
[1] = Selectivity index, ratio of CC50 for human A549 cells to EC50 for pseudotyped Ebola virus expressing glycoprotein infected in human A549 cells; type: toxicity, cell-based; settings: read-out: Ratio CC50/EC50
Ebolavirus = experiment: Antiviral activity against pseudotyped Ebola virus expressing glycoprotein infected in human A549 cells assessed as inhibition of viral entry incubated for 48 hrs by Neolite reporter gene assay; type: functional, organism-based; settings: Orthoebolavirus, A549, 48 h
Marburgvirus = experiment: Antiviral activity against pseudotyped Marburg virus expressing glycoprotein infected in human A549 cells assessed as inhibition of viral entry incubated for 48 hrs by Neolite reporter gene assay; type: functional, organism-based; settings: Orthomarburgvirus, A549, 48 h

Row | Structure (SMILES) | selectivity ratio [1] | EC50 (Ebolavirus) [µM] | EC50 (Marburgvirus) [µM]
1 | CC1CCN(c2ccc(NC(=O)c3ccc(CN4CCOCC4)cc3)cn2)CC1 | 8 | 12.3 | 24.4
2 | O=C(N[C@]12CC3CC(C[C@@H](C3)C1)C2)c1ccc(CN2CCOCC2)cc1 | 16 | 6.27 | 53.8
3 | O=C(Nc1ccc(N2CCC3(CCC3)CC2)c(C(F)(F)F)c1)c1ccc(CN2CCOCC2)cc1 | 209 | 0.09 | 1.11
4 | O=C(Nc1ccc(SC(F)(F)F)c(Cl)c1)c1ccc(CN2CCOCC2)cc1 | 5 | 4.95 | 8.43
5 | CC1(C)CCCN(c2ccc(NC(=O)c3ccc(CN4CCOCC4)cc3)cc2C(F)(F)F)C1 | 107 | 0.37 | 6.58
6 | O=C(Nc1csc(N2CCOCC2)n1)c1ccc(CN2CCOCC2)cc1 | > 1 | > 100 | > 100
7 | CC1CCN(c2ccc(N(C)C(=O)c3ccc(CN4CCOCC4)cc3)cc2C(F)(F)F)CC1 | 33 | 1.55 | 7.56
8 | O=C(c1ccc(CN2CCOCC2)cc1)N(c1ccccc1)c1ccccc1 | > 15 | 6.72 | 71.1
9 | O=C(Nc1ccc(Cl)c(C(F)(F)F)c1)c1ccc(CN2CCOCC2)cc1 | 6 | 8.09 | 5.6
10 | O=C(Nc1ccc(N2CC3(CCC3)C2)c(C(F)(F)F)c1)c1ccc(CN2CCOCC2)cc1 | 116 | 0.86 | 3.65
11 | CC(C)(C)c1ccc(NC(=O)c2ccc(CN3CCOCC3)cc2)c(C(C)(C)C)c1 | 30 | 3.32 | 17.1
12 | O=C(Nc1ccc(C23CC4CC(CC(C4)C2)C3)cc1)c1ccc(CN2CCOCC2)cc1 | 495 | 0.15 | 8.07
13 | CC1(C)CCN(c2ccc(NC(=O)c3ccc(CN4CCOCC4)cc3)cc2C(F)(F)F)C1 | 321 | 0.19 | 1.45
14 | CC(C)(C)C1CCN(c2ccc(NC(=O)c3ccc(CN4CCOCC4)cc3)cc2C(F)(F)F)CC1 | 13 | 1.45 | 6.15
15 | O=C(Nc1ccc(CN2CCOCC2)cc1)c1ccc(Cl)c(C(F)(F)F)c1 | 9 | 7.76 | 5.66
16 | O=C(Nc1ccc(N2CCOCC2)c(C(F)(F)F)c1)c1ccc(CN2CCOCC2)cc1 | 69 | 0.49 | 6.97
17 | CC1CC(C)CN(c2ccc(NC(=O)c3ccc(CN4CCOCC4)cc3)cc2C(F)(F)F)C1 (centres undefined) | 52 | 1.07 | 5.34
18 | CC1CCN(c2ccc(C(=O)Nc3ccc(CN4CCOCC4)cc3)cc2C(F)(F)F)CC1 | 23 | 1.03 | 2.9
19 | CC1CCN(c2ccc(NC(=O)c3ccc(CN4C[C@@H]5C[C@H]4CO5)cc3)cc2C(F)(F)F)CC1 | 86 | 0.23 | 1.34
20 | CC1CCN(c2ccc(N(CC3CC3)C(=O)c3ccc(CN4CCOCC4)cc3)cc2C(F)(F)F)CC1 | 22 | 1.82 | 4.61
21 | O=C(Nc1ccc(C(F)(F)F)c(Cl)c1)c1ccc(CN2CCOCC2)cc1 | 1 | 22.1 | 3.91
22 | O=C(Nc1ccc(C23CC4CC(CC(O)(C4)C2)C3)cc1)c1ccc(CN2CCOCC2)cc1 | – | 64.6 | 25
23 | O=C(Nc1ccc(N2CCC2)c(C(F)(F)F)c1)c1ccc(CN2CCOCC2)cc1 | 6 | 14.9 | 42.4
24 | CC1CCCN(c2ccc(NC(=O)c3ccc(CN4CCOCC4)cc3)cc2C(F)(F)F)C1 (centres undefined) | 142 | 0.3 | 3.06
25 | CC1CCN(c2ccc(NC(=O)c3ccc(CN4CCOCC4)nc3)cc2C(F)(F)F)CC1 | 138 | 0.4 | 1.12
